{"source": "paper PMC8011931", "about": "“Identification, Structure–Activity Relationship, and Biological Characterization of 2,3,4,5-Tetrahydro-1H-pyrido[4,3-b]indoles as a Novel Class of CFTR Potentiators” (Journal of Medicinal Chemistry, 2020)", "key": {"[1]": {"assay": "Lung tissue distribution after a single oral dose to rats", "assay_type": "in vivo", "conditions": "Sprague-Dawley, rat, p.o., 10 mg/kg", "description": "Taking into account both the encouraging results in rescuing the gating defect in mutant CFTR in both primary and secondary biological assays, and the promising in vivo PK profile, we quantified the amount of compound 39 in rat lung tissue, the main target organ for CF treatment. The lung tissue distribution of potentiator 39 was investigated following administration of a single oral dose of 10 mg/kg to Sprague–Dawley rats. Supported by the data obtained in the pharmacokinetic study after oral administration, two time points (2 and 4 h) were selected for collecting plasma and lung tissue samples. The mean concentration vs. time profiles of compound 39 in plasma and lung tissue are reported in Figure S2 (see the Supporting Information).\nThree animals per dose and timing were treated. Compound 39 was dissolved in PEG400/Tween80/saline solution at 10/10/80% in volume and administered orally at a dose of 10 mg/kg. After 120 and 240 min, rats were sacrificed and lungs were immediately dissected, frozen on dry ice, and stored at −80 °C until analysis. Lung samples were homogenized in RIPA buffer (150 mM NaCl, 1.0% Triton X-100, 0.5% sodium deoxycholate, 0.1% sodium dodecyl sulfate, 50 mM Tris, and pH 8.0) and then split into two aliquots kept at −80 °C until analysis. An aliquot was used for compound lung-level evaluations. The second aliquot was kept for protein content evaluation using the bicinchoninic acid assay (Thermo Scientific, Rockford, IL, USA).\nPlasma samples were centrifuged at 21,100g for 15 min at 4 °C, while homogenized lung samples were vigorously whirled. An aliquot of each sample was extracted (1:3) with cold CH3CN containing 200 nM of an appropriate internal standard being a close analogue of the parent compound. A calibration curve was prepared in both blank mouse plasma and naïve lung homogenate over a 1 nM to 10 μM range. Three quality controls were prepared by spiking the parent compound in both blank mouse plasma and naïve lung homogenate to 20, 200, and 2000 nM as final concentrations. The calibrators and quality controls were extracted (1:3) with the same extraction solution as the plasma and lung samples. The plasma and lung samples, the calibrators, and quality controls were centrifuged at 3270g for 15 min at 4 °C. The supernatants were further diluted (1:1) with H2O and analyzed by LC/MS–MS on a Waters ACQUITY UPLC/MS TQD system consisting of a TQD mass spectrometer equipped with an electrospray ionization interface and a photodiode array eλ detector. Electrospray ionization was applied in the positive mode. […] All samples (plasma and lung samples, calibrators, and quality controls) were quantified by MRM peak area response factor in order to determine the levels of the parent compound in plasma and lung. […]"}, "[2]": {"target": "F508del-CFTR (Homo sapiens, UniProt P13569, DEL508-508)", "sequence (P13569 with tags, fused parts or gaps DEL508-508)": "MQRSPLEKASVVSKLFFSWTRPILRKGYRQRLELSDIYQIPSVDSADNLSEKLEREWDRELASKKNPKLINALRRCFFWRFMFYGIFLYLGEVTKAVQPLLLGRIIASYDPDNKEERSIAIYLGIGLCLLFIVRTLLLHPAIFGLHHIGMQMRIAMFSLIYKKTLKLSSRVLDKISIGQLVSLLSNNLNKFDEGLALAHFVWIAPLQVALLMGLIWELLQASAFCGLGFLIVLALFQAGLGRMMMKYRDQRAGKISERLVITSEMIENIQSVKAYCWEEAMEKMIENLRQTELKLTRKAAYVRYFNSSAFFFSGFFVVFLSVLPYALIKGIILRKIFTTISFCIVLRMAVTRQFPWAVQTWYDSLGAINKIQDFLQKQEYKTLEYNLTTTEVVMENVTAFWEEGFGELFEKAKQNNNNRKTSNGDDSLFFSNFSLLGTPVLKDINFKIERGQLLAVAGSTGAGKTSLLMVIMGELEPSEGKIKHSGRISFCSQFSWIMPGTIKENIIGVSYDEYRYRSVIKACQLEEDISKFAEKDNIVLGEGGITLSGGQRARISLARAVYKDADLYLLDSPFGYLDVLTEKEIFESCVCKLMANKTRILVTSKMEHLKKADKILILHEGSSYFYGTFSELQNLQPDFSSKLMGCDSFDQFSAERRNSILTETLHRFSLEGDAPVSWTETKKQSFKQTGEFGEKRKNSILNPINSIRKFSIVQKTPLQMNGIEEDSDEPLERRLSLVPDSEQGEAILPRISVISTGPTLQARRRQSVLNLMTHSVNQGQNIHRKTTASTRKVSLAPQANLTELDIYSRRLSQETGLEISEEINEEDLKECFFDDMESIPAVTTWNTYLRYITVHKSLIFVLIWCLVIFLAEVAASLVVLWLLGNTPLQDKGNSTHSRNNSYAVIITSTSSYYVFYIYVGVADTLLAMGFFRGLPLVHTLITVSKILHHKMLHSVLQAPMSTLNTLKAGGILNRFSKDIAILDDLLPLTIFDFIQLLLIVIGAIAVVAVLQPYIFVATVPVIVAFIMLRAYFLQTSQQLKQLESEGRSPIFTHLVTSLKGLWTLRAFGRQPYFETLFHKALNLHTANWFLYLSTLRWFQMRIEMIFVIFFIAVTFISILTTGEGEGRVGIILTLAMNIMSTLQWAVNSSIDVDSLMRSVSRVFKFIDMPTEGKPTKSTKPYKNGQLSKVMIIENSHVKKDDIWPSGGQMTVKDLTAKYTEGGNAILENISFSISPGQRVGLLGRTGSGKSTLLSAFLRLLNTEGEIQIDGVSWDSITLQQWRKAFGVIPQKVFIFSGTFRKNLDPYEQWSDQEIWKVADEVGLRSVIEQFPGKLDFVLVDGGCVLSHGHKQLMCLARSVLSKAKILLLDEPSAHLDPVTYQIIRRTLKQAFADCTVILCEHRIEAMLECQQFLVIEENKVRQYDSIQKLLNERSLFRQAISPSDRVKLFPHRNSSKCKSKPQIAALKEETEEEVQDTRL", "assay": "24 h co-incubation with correctors, YFP-based functional assay on F508del-CFTR CFBE41o- cells", "assay_type": "cell-based", "set-up": "expressed in transfected cells", "conditions": "39 5 μM with VX-809 1 μM or ARN23765 10 nM", "description": "Recent studies have shown that most potentiators have an undesired activity on F508del-CFTR protein processing/trafficking.[39],[40] According to these studies, chronic incubation with potentiators results in decreased activity of VX-809 as a corrector. To test the effect of our potentiators, we incubated F508del-CFTR CFBE41o-cells for 24 h with tetrahydro-γ-carboline 39 (5 μM) together with VX-809 (1 μM) and ARN23765 (10 nM), the picomolar affinity corrector recently reported by our research team.[35] […]\nPrior assay, cells were washed with phosphate-buffered saline (PBS) containing (in mM) 137 NaCl, 2.7 KCl, 8.1 Na2HPO4, 1.5 KH2PO4, 1 CaCl2, and 0.5 MgCl2. […] Cells were then transferred to microplate readers (FluoStar Optima; BMG Labtech, Offenburg, Germany) for CFTR activity determination. The plate readers were equipped with high-quality excitation (HQ500/20X: 500 ± 10 nm) and emission (HQ535/30M: 535 ± 15 nm) filters for YFP (Chroma Technology). The assay consisted of a continuous 14 s fluorescence reading, 2 s before and 12 s after injection of 165 μL of an iodide-containing solution (PBS with Cl^– replaced by I^–; final I^– concentration 100 mM). Data were normalized to the initial background-subtracted fluorescence. […]"}, "[3]": {"conditions": "lung, read-out: concentration in the lungs"}}, "note": "Read-outs that look alike come from different tables or passages of the source."}
{"compound": "Cc1ccc(F)c2[nH]c3c(c12)CN(C(=O)c1cc(C(F)(F)F)[nH]n1)[C@H](C)C3", "note": "[Compound 39, (R)-(6-Fluoro-3,9-dimethyl-1,3,4,5-tetrahydro-2H-pyrido[4,3-b]indol-2-yl)-(5-(trifluoromethyl)-1H-pyrazol-3-yl)methanone]", "values": [{"measurement": "concentration at 2 h", "setting": "[1]; [3]", "result": 4500, "unit": "ng/g"}, {"measurement": "concentration at 4 h", "setting": "[1]; [3]", "result": 2200, "unit": "ng/g"}, {"measurement": "concentration at 2 h", "setting": "[1]; plasma, read-out: plasma level", "result": 1030, "unit": "ng/mL"}, {"measurement": "concentration at 4 h", "setting": "[1]; plasma, read-out: plasma level", "result": 675, "unit": "ng/mL"}, {"measurement": "effect on rescue efficacy of VX-809 or ARN23765", "setting": "[2]", "result": "did not affect the rescue efficacy"}]}
